Several values for one entry are separate records, joined by “and”; a condition that tells them apart may be missing. Equal values may be shown once.
Test: Stability of 1% crisaborole solution in 50% ethanol/citrate buffer at various pH
Format: physicochemical
Settings: for % peak purity: 1% solution, 50% ethanol, 40° C. for one month
Method: The sample was stored in a closed, airtight glass container with headspace comprising no more than 5% by volume of the total usable volume of the container. Each container containing a sample was stored at a constant temperature of 40° C. in a standard laboratory incubator (for example, Memmert IF260PLUS Incubator). The storage period for each sample was […]. The chemical stability of the crisaborole in each sample after the storage period was measured by a HPLC method. The HPLC method was as follows: A 1% solution of crisaborole was prepared with 50% ethanol and a citrate buffer to pH 5.5. The system was then stored at 40° C. for one month under the conditions of Example 3 and gave an 84% peak purity. Equivalent solutions were prepared and tested at pH 4.5, 6.5, 7.5 and 8.5.

pH at which chemical stability is highest (aqueous medium, pH 4.5 to 8.5 tested): 5.5
% peak purity (pH 4.5): 79.5%
% peak purity (pH 5.5, citrate buffer): 84% and 84.1%
% peak purity (pH 6.5): 79.8%
% peak purity (pH 7.5): 72.1%
% peak purity (pH 8.5): 51.3%
Structure (SMILES): N#Cc1ccc(Oc2ccc3c(c2)COB3O)cc1 [crisaborole]

Source: US11744799B2, “Topical composition” (MC2 Therapeutics Limited, priority 2017, dated 2023)
